# From PMC8704315, “Lichen-Derived Compounds and Extracts as Biologically Active Substances with Anticancer and Neuroprotective Properties” (Pharmaceuticals, 2021)
# Values joined by “and” are separate entries in the source; they are usually repeats but may differ in a detail not shown here. Equal entries are not always repeated. Where two headings read alike, the source gives them in different places.
# What was measured:
# [1] = molecular target: T1, COX-2 enzyme (Human recombinant) (Homo sapiens, UniProt P35354); assay: COX-2 activity assay (Cayman COX Activity Assay Kit); type: biochemical; conditions: for inhibition at 250 µg/mL: read-out: COX-2 Inhibition (%)
# T1 construct: purchased Cayman 60122
# T1 sequence (P35354 18-604): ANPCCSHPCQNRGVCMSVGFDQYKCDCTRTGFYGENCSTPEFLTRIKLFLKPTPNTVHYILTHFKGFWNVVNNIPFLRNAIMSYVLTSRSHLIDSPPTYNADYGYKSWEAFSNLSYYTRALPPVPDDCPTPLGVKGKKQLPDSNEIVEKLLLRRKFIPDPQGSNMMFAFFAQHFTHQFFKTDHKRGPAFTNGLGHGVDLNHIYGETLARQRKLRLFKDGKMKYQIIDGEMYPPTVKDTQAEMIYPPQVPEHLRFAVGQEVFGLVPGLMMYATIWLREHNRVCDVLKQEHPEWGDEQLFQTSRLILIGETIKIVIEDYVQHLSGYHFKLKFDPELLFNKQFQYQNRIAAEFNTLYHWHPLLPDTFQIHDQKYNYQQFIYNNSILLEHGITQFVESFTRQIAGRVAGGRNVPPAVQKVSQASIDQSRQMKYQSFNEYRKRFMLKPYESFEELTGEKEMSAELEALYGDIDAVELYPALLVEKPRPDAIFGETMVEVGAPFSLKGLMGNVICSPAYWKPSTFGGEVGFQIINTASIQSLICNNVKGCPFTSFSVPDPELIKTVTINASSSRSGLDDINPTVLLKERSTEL
# Experimental: A volume of 0.01 mL of the studied sample, dissolved in pure DMSO to obtain 5 mg/mL, was mixed with 0.12 mL of Tris buffer (100 mM, pH 8.0), 0.01 mL hemin, shaken and left for 5 min at 25 °C followed by addition of 0.02 mL colorimetric substrate and 0.02 mL arachidonic acid solution. To start the reaction, 0.02 mL of COX-2 solution was added. The increase of absorbance during incubation at room temperature was recorded at 590 nm. Negative (blank) sample (buffer instead of studied sample) and positive sample (COX-2 inhibitor DuP-697) were run simultaneously. Background of studied samples (0.01 mL of sample mixed with 0.19 mL buffer) was also measured and included in the calculations. Each sample was run in at least 4 repeats. Inhibition of the enzyme activity was expressed in % (indicates by how many % the activity has been reduced in relation to the negative or blank sample for which the maximum activity was assumed as 100%, under the conditions used in the method). Also, inhibition of enzyme activity was expressed as acetylsalicylic acid equivalent concentration (mg/mL). For this purpose, acetylsalicylic acid solutions were prepared at 14 concentrations (0.2-10.0 mg/mL) and analyzed similarly to tested samples.
# [2] = molecular target: T2, glutathione peroxidase (GPx) (Bos taurus, UniProt P00435); assay: Effect on glutathione peroxidase activity; type: biochemical; conditions: for inhibition at 243.9 µg/mL: read-out: GPx Inhibition under Reaction Conditions (%)
# T2 construct: purchased Sigma G6137
# T2 sequence (P00435 1-205): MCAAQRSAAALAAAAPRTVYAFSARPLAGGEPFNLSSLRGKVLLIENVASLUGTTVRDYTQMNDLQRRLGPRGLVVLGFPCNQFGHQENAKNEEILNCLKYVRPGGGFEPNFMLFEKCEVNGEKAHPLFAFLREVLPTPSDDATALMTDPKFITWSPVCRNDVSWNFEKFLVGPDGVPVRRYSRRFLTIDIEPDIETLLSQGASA
# Experimental: Sample (20 µL, 5 mg/mL of pure DMSO) was mixed with 8 μL of EDTA solution, 10 μL of glutathione reductase (0.2 U Sigma G3664), 4 μL of GSH solution, 10 μL of glutathione peroxidase (0.04 U Sigma G6137), 22 μL of H2O2 and 332 μL of 50 mM sodium phosphate, pH 7.0). To start the reaction, 4 μL of NADPH solution (N5130) was added and the decrease in the absorbance (340 nm) was read after 10 min of incubation at 25 °C. All solutions were prepared in 50 mM buffer and concentrations of reagents in the final mixture were as follows: 1mM EDTA, 0.2 U glutathione reductase, 2 mM GSH, 0.04 U glutathione peroxidase, 1.5 mM H2O2 and 0.8 mM NADPH. Blank sample was prepared with buffer instead of the studied sample and background was measured (mixture containing studied sample and buffer only). One unit of enzyme activity was defined as nMol of NADPH consumed/min·mL sample, in comparison with nMol of NADPH consumed/min in blank (reagent) sample [76].
# [3] = tested on: Superoxide dismutase (SOD); assay: Effect on superoxide dismutase activity; type: biochemical; conditions: 537.6 μg/mL reaction mixture, ± SEM, n = 3
# Experimental: Sample (50 µL, 5 mg/mL of pure DMSO) was mixed with 10 μL SOD (0.24 U), 160 μL nitrobluetatrazolium solution (0.0025 M), 205 μLphosphate buffer (0.2 M, pH 7.5), 30 μL xanthine (150 mM in 1 M NaOH) and 0.01 mL xanthine oxidase (0.065 U, Sigma Aldrich X4875). The change in the absorbance at 550 nm was measured in tested samples vs. controls without the studied sample after […] of incubation and the effect on the enzyme was calculated using the equation [74]: (3) Inhibition [%]=100 – 100×(Abs. 30 min – Abs. 0 min)/(Abs. control. 30 min – Abs. control 0 min)
# [4] = tested on: A-172 cell line; assay: MTT cell viability assay, 48 h, A-172; type: cell-based, Human; conditions: for IC50: Homo sapiens, read-out: IC50 A-172
# [5] = sample 5 mg/mL stock, 250.0 µg/mL in assay, ± SEM
# [6] = 243.9 μg/mL in the reaction mixture
# [7] = A 172, 48 h treatment, MTT, ± SEM
compound,measurement,setting,value
"CC(=O)C1=C(O)C=C2Oc3c(C(C)=O)c(O)c(C)c(O)c3C2(C)C1=O (single isomer, unassigned; (-)) [(−)-Usnic acid, (−)-usnic acid]",inhibition at 250 µg/mL,[1],59.3 ± 3.5%
same,Equivalent Concentration of Acetylsalicylic Acid,[1]; [5],12.9 ± 1.5 mg/mL
same,GPx Inhibitory Activity (nMol Depleted NADPH/min Incubation),[2]; [6],27.3 ± 1.3 nMol Depleted NADPH/min Incubation
same,inhibition at 243.9 µg/mL,[2],13.7 ± 2.3%
same,SOD Inhibition (%),[3],19.6 ± 0.6%
same,SOD Inhibition (%),[3]; listed as (−)-usnic acid,~ 20%
same,IC50,"[4]; A 172, 48 h",31.5 µg/mL and 91.4 µM
"COc1cc(C)c(C(=O)Oc2cc(C)c(C(=O)O)c(O)c2)c(O)c1 [Evernic acid, evernic acid]",Equivalent Concentration of Acetylsalicylic Acid,[1]; [5],10.9 ± 1.8 mg/mL
same,inhibition at 250 µg/mL,[1]; [5],50.7 ± 2.1%
same,GPx Inhibitory Activity (nMol Depleted NADPH/min Incubation),[2]; [6],39.9 ± 1.0 nMol Depleted NADPH/min Incubation
same,inhibition at 243.9 µg/mL,[2]; [6],20 ± 2.1%
same,SOD Inhibition (%),[3],21.2 ± 0.0%
same,SOD Inhibition (%),[3]; listed as evernic acid,~ 20%
same,cell viability A-172,"[4]; 10–100 µM, compared to vehicle-treated control",~ 80%
same,IC50,[4]; [7],> 33.2 µg/mL and > 100 µM
"Cc1cc(O)c(C=O)c2c1C(=O)Oc1c(CO)c(O)c3c(c1O2)C(O)OC3=O (stereo not drawn) [Salazinic acid, salazinic acid]",Equivalent Concentration of Acetylsalicylic Acid,[1]; [5],12.9 ± 0.1 mg/mL
same,inhibition at 250 µg/mL,[1]; [5],60.3 ± 3%
same,GPx Inhibition under Reaction Conditions (%),[2]; [6],-
same,SOD Inhibition (%),[3],19.4 ± 0.3%
same,SOD Inhibition (%),[3]; listed as salazinic acid,~ 20%
same,IC50,[4]; [7],> 38.8 µg/mL and > 100 µM
